Assay results published in PubChem BioAssay (NCI).
“And” between values parts separate entries of the source, which are not always exact repeats. Identical values can stand only once.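 Each compound was tested at five concentrations against cells in 96-well plates for 48 hours. GI50 is the concentration that inhibits growth by half. TGI: total growth inhibition.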

Tests used:
Assay in all cases: DTP human tumour cell line panel, 48 h
[1] = tested on: NCI-H460 lung
[2] = tested on: OVCAR-5 ovarian
[3] = tested on: IGROV1 ovarian
[4] = tested on: SK-MEL-28 melanoma
[5] = tested on: SW-620 colon
[6] = tested on: CAKI-1 renal
[7] = tested on: NCI-H226 lung
[8] = tested on: SK-MEL-5 melanoma
[9] = tested on: SNB-19 CNS
[10] = tested on: SF-295 CNS

Row | SMILES | TGI [1] | TGI [2] | TGI [3] | TGI [4] [µM] | TGI [5] [µM] | TGI [6] | TGI [7] | TGI [8] | TGI [9] | TGI [10] | GI50 [1] | GI50 [2] | GI50 [3] | GI50 [4] | GI50 [5] | GI50 [6] | GI50 [7] | GI50 [8] | GI50 [9] | GI50 [10]
1 | Cc1ccc(N2C(=O)/C(=C/c3ccc(N(CCC#N)CCC#N)cc3C)N=C2c2cc([N+](=O)[O-])ccc2Cl)cc1 | > 100 µM | > 100 µM | > 100 µM | > 100 | > 100 | > 100 µM | > 100 µM | > 100 µM | > 100 µM | > 100 µM |  |  |  |  |  |  |  |  |  | 
2 | CC1=Nn2c(nnc2-c2ccc(N)cc2)NC(C)(C)C1 | > 100 µM | > 100 µM | > 100 µM | > 100 | > 100 | > 100 µM | > 100 µM | > 100 µM | > 100 µM | > 100 µM |  |  |  |  |  |  |  |  |  | 
3 | CC(C)C[C@@H]1NC(=O)[C@@H]2CCCN2C(=O)[C@@H]2CCCN2C(=O)[C@H](CC(C)C)NC(=O)[C@H](CO)NC(=O)[C@H](CCCCN)NC(=O)[C@H]([C@H](C)O)NC(=O)[C@@H]2CCCC[C@@H](NC1=O)C(=O)N[C@@H](Cc1ccccc1)C(=O)N1CCC[C@H]1C(=O)N[C@@H](CC(=O)O)C(=O)NCC(=O)N[C@@H](CCCN=C(N)N)C(=O)N2 | > 50 µM | > 50 µM | > 50 µM | > 50 | > 50 | > 50 µM | > 50 µM | > 50 µM | > 50 µM | > 50 µM | > 50 µM | > 50 µM | > 50 µM | > 50 µM | > 50 µM | > 50 µM | > 50 µM | > 50000 nM | > 50 µM | > 50000 nM
4 | Cc1ccc(S(=O)(=O)Nc2nc3ccccc3nc2Nc2ccc3nsnc3c2)cc1 | 70.7 µM and > 100 µM | > 100 µM | > 100 µM and 59.4 µM | > 100 | > 100 | > 100 µM | > 100 µM | 11.6 µM and 7.46 µM | > 100 µM | 15.7 µM and 13.3 µM | 3.36 µM and 2.92 µM | 17.4 µM and > 81.2 µM | 4.16 µM and 2.7 µM | 4.38 µM and 4.11 µM | 7.95 µM and 5.22 µM | 3.36 µM and 2.33 µM | 5.38 µM and 7.55 µM | 2650 nM and 1880 nM | 3.29 µM and 3.54 µM | 2980 nM and 2360 nM
5 | CCCCCN(CCCCC)CC(O)c1cc2c(c3ccccc13)CCCC2 (stereo not given) | 13.8 µM and 16.1 µM | 23.6 µM and 31.5 µM | 17.3 µM and 33.3 µM | 25.5 | 19.4 | 10.9 µM and 20.2 µM | 20.3 µM and 29.2 µM | 5.01 µM and 14.1 µM | 22.9 µM and 39.4 µM | 11.4 µM and 29.8 µM | 3.4 µM and 4.36 µM | 11.1 µM and 13.5 µM | 3.5 µM and 6.44 µM | 12.1 µM | 5.99 µM | 3.44 µM and 4.29 µM | 5.64 µM and 11 µM | 2080 nM and 3980 nM | 11 µM and 17.9 µM | 2380 nM and 6820 nM
6 | Cc1cc(=O)oc2cc(OCc3nc4ccccc4c(=O)[nH]3)ccc12 | > 100 µM | > 100 µM | > 100 µM | > 100 | > 100 | > 100 µM | > 100 µM | > 100 µM | > 100 µM | > 100 µM |  |  |  |  |  |  |  |  |  | 
7 | Clc1ccc2c(c1)-c1ccccc1C1=NCCN12 | 4.51 µM | 13.4 µM | 5.36 µM | 3.54 | 6.53 | 5.8 µM | 3.53 µM | 2.94 µM | 9.32 µM | 6.34 µM | 1.49 µM | 2.68 µM | 2.14 µM | 1.74 µM | 1.11 µM | 1.83 µM | 1.45 µM | 1560 nM | 2.5 µM | 2120 nM
8 | NC(CCSC(F)F)C(=O)O (stereo not given) | > 100 µM | > 100 µM | > 100 µM | > 100 | > 100 | > 100 µM | > 100 µM | > 100 µM | > 100 µM | > 100 µM |  |  |  |  |  |  |  |  |  | 
9 | CC12CC3CC(C1)CC(N=[N+]=[N-])(C3)C2 | > 100 µM | > 100 µM | > 100 µM | > 100 | > 100 | > 100 µM | > 100 µM | > 100 µM | > 100 µM | > 100 µM |  |  |  |  |  |  |  |  |  | 
10 | O=C(CN1C(=O)c2ccccc2C1=O)C(O)CN1C(=O)c2ccccc2C1=O (stereo not given) | > 100 µM | > 100 µM | > 100 µM | > 100 | > 100 | > 100 µM | > 100 µM | > 100 µM | > 100 µM | 99.8 µM |  |  |  |  |  |  |  |  |  | 
11 | N#Cc1nc2cc(F)c(F)cc2nc1-c1ccc(Cl)cc1 | > 100 µM | > 100 µM | 2.31 µM | > 100 | 50.1 | 38.5 µM | > 63.2 µM | 40.6 µM | > 85.9 µM | 38.9 µM | 57.5 µM | > 100 µM | 0.673 µM | 22 µM | 16 µM | 15.1 µM | 3.44 µM | 14400 nM | 14.5 µM | 12200 nM
12 | Oc1ccc(N=Nc2ccc(N=Nc3ccccc3)cc2)cc1 | 6.16 µM | 17.3 µM | 18.2 µM | 3.64 | 13.9 | 4.12 µM | 48.2 µM | 5.64 µM | 19.7 µM | 10.1 µM | 1.97 µM | 4.16 µM | 3.5 µM | 1.7 µM | 1.51 µM | 1.45 µM | 18.3 µM | 2100 nM | 6.39 µM | 2320 nM
13 | C[C@@H]1C[C@@]2(O[C@@H]2C)C(=O)O[C@@H]2CCN3CC=C(COC(=O)[C@]1(C)O)[C@H]23 | > 100 µM | > 100 µM | > 100 µM | > 100 | > 100 | > 100 µM | > 100 µM | > 100 µM | > 100 µM | > 100 µM |  |  |  |  |  |  |  |  |  | 
14 | O=C(/C=C1/NC(=O)CS1)Nc1ccccc1 | > 100 µM | > 100 µM | > 100 µM | > 100 | > 100 | > 100 µM | > 100 µM | > 100 µM | > 100 µM | > 100 µM |  |  |  |  |  |  |  |  |  | 
15 | CC(=O)c1c[nH]cc1CO | > 10 µM | > 10 µM | > 10 µM | > 10 | > 10 | > 10 µM | > 10 µM | > 10 µM | > 10 µM | > 10 µM |  |  |  |  |  |  |  |  |  | 
16 | Cc1nn(-c2nc3ccccc3[nH]2)c2c1C(c1ccc3c(c1)OCO3)CC(=O)N2 (stereo not given) | 5.55 µM | > 100 µM | 4.57 µM | 32.6 | 9.63 | 7.04 µM | 7.09 µM | 3.76 µM | > 100 µM | 4.38 µM | 2.36 µM | 5.43 µM | 2.36 µM | 3.39 µM | 2.86 µM | 2.55 µM | 2.45 µM | 1880 nM | 4.45 µM | 1810 nM
17 | NCCCCN(Cc1nc2ccccc2[nH]1)[C@H]1CCCc2cccnc21 | > 100 µM | > 100 µM | > 100 µM | 34.8 | > 100 | > 64.4 µM | 44.4 µM | 27.8 µM | > 100 µM | 30.7 µM | 7.47 µM | 11.8 µM | 12.6 µM | 14.9 µM | 12.6 µM | 16.1 µM | 12.5 µM | 14500 nM | 26.9 µM | 12800 nM
18 | C/C=C/C=C\C1OC(O)([C@H](CC)C(=O)NC/C=C/C=C(\C)[C@H](OC)C(C)C2OC(\C=C/C=C/C=C(\C)C(=O)c3c(O)ccn(C)c3=O)[C@H](O)[C@@H]2O)C(O)C(O)C1(C)C (stereo not given in full) | > 100 µM | > 100 µM | > 100 µM | > 100 | > 100 | > 100 µM | > 100 µM | > 100 µM | > 100 µM | > 100 µM |  |  |  |  |  |  |  |  |  | 
19 | CS(=O)(=O)Nc1cc(-c2ccc3ncnc(Nc4ccc5c(cnn5Cc5ccccc5F)c4)c3c2)cnc1Cl | 58 µM | > 100 µM | 4.31 µM | 6.59 | > 35.9 | 5.62 µM | 11.3 µM | 3.28 µM | > 55.5 µM | 8.51 µM | 2.1 µM | 2.22 µM | 0.575 µM | 0.771 µM | 1.94 µM | 1.71 µM | 1.74 µM | 1760 nM | 1.77 µM | 1960 nM
20 | S=C(Nc1ccccc1)N(Cc1ccccc1)c1ccccc1 | > 100 µM | > 100 µM | > 100 µM | 78.4 | > 100 | 90.3 µM | > 100 µM | 28.5 µM | > 100 µM | > 100 µM |  |  |  |  |  |  |  |  |  | 
21 | O=Cc1ccc(O)c2ncccc12 | 17.2 µM | 65.5 µM | 16.8 µM | > 53.3 | 16.6 | 35.4 µM | > 79.1 µM | 9.45 µM | > 100 µM | 13.1 µM | 3.47 µM | 4.65 µM | 3.32 µM | 7.14 µM | 3.91 µM | 7.29 µM | 4.88 µM | 2400 nM | 6.03 µM | 2120 nM
22 | CN(C)c1ccc(O)c2c1C[C@H]1C[C@H]3[C@H](N(C)C)C(=O)C(C(N)=O)=C(O)[C@@]3(O)C(=O)C1=C2O | 20.7 µM | 88.8 µM | 27.8 µM | 48.4 | > 100 | 20.9 µM | 84.5 µM | 14.7 µM | > 100 µM | 7.99 µM | 3.45 µM | 15.5 µM | 3.42 µM | 7.52 µM | 5.84 µM | 2.16 µM | 8.58 µM | 3380 nM | 5.93 µM | 2460 nM
23 | COc1ccccc1/C=N/N=C(\N)NO | > 100 µM | 24.3 µM | > 100 µM | > 100 | > 100 | > 100 µM | 90.7 µM | 25.6 µM | > 100 µM | 12.3 µM |  |  |  |  |  |  |  |  |  | 
